Test results published in US10385024B2, “Compounds and methods for inhibiting NHE-mediated antiport in the treatment of disorders associated with fluid retention or salt overload and gastrointestinal tract disorders” (Ardelyx, Inc., priority 2012, dated 2019).

Key:
Rat NHE-3 [1] = biological target: T1, Rat NHE-3 (Rattus norvegicus, UniProt P26433); experiment: Cell-based assay of NHE-3 activity (persistent inhibition, after washout); conditions: OK cells with rat NHE-3 gene, 60 min incubation, recovery initiated 40 min after compound washout; for IC50: read-out: Rat NHE3 pIC50 (persistent) (converted)
T1 construct: expressed in transfected cells; host or cells: Opossum kidney (OK) cells (ATCC), transfected by electroporation
Description: The ability of compounds to inhibit Rat NHE-3-mediated Na^+-dependent H^+ antiport after application and washout was measured using a modification of the pH sensitive dye method described above in Example 74. Opossum kidney (OK) cells were obtained from the ATCC and propagated per their instructions. The rat NHE-3 gene was introduced into OK cells via electroporation, and cells were seeded into 96 well plates and grown overnight. Medium was aspirated from the wells, cells were washed twice with NaCl-HEPES buffer (100 mM NaCl, 50 mM HEPES, 10 mM glucose, 5 mM KCl, 2 mM CaCl2, 1 mM MgCl2, pH 7.4), then overlayed with NaCl-HEPES buffer containing 0-30 μM test compound. After a 60 min incubation, the test drug containing buffer was aspirated from the cells, cells were washed twice with NaCl-HEPES buffer without drug, then incubated for 30 min at room temperature with NH4Cl-HEPES buffer (20 mM NH4Cl, 80 mM NaCl, 50 mM HEPES, 5 mM KCl, 2 mM CaCl2, 1 mM MgCl2, pH 7.4) containing 5 μM BCECF-AM. Cells were washed twice with ammonium free, Na^+-free HEPES (100 mM choline, 50 mM HEPES, 10 mM glucose, 5 mM KCl, 2 mM CaCl2, 1 mM MgCl2, pH 7.4) and incubated in the same buffer for 10 minutes at room temperature to lower intracellular pH. […] Initial rates were plotted as the average 2 or more replicates, and pIC50 values were estimated using GraphPad Prism.

Rat NHE-3 [2] = biological target: T1, Rat NHE-3; experiment: Cell-based assay of NHE-3 activity (rat NHE-3 prompt inhibition); conditions: OK cells with rat NHE-3 gene, compound present during pH recovery; for IC50: read-out: Rat NHE3 pIC50 (prompt) (converted)
Description: (§1) Rat or human NHE-3-mediated Na^+-dependent H^+ antiport was measured using a modification of the pH sensitive dye method originally reported by Paradiso (Proc. Natl. Acad. Sci. USA. (1984) 81(23): 7436-7440). Opossum kidney (OK) cells were obtained from the ATCC and propagated per their instructions. The rat NHE-3 gene (GenBank M85300) or the human NHE-3 gene (GenBank NM_004174.1) was introduced into OK cells via electroporation, and cells were seeded into 96 well plates and grown overnight. Medium was aspirated from the wells, cells were washed twice with NaCl-HEPES buffer (100 mM NaCl, 50 mM HEPES, 10 mM glucose, 5 mM KCl, 2 mM CaCl2, 1 mM MgCl2, pH 7.4), then incubated for 30 min at room temperature with NH4Cl-HEPES buffer (20 mM NH4Cl, 80 mM NaCl, 50 mM HEPES, 5 mM KCl, 2 mM CaCl2, 1 mM MgCl2, pH 7.4) containing 5 μM bis(acetoxymethyl) 3,3′-(3′,6′-bis(acetoxymethoxy)-5-((acetoxymethoxy)carbonyl)-3-oxo-3H-spiro[isobenzofuran-1,9′-xanthene]-2′,7′-diyl)dipropanoate (BCECF-AM). Cells were washed twice with Ammonium free, Na^+-free HEPES (100 mM choline, 50 mM HEPES, 10 mM glucose, 5 mM KCl, 2 mM CaCl2, 1 mM MgCl2, pH 7.4) and incubated in the same buffer for 10 minutes at room temperature to lower intracellular pH. […] Initial rates were plotted as the average 2 or more replicates, and pIC50 values were estimated using GraphPad Prism.

human NHE-3 = biological target: T2, human NHE-3 (Homo sapiens, UniProt P48764); experiment: Cell-based assay of NHE-3 activity (human NHE3 inhibition assay); conditions: OK cells with human NHE-3 gene, BCECF pH dye, 0-30 μM test compound; for IC50: read-out: Human NHE3 pIC50 (converted)
T2 construct: expressed in transfected cells; host or cells: Opossum kidney (OK) cells (ATCC), transfected by electroporation
T2 sequence (P48764 26-834): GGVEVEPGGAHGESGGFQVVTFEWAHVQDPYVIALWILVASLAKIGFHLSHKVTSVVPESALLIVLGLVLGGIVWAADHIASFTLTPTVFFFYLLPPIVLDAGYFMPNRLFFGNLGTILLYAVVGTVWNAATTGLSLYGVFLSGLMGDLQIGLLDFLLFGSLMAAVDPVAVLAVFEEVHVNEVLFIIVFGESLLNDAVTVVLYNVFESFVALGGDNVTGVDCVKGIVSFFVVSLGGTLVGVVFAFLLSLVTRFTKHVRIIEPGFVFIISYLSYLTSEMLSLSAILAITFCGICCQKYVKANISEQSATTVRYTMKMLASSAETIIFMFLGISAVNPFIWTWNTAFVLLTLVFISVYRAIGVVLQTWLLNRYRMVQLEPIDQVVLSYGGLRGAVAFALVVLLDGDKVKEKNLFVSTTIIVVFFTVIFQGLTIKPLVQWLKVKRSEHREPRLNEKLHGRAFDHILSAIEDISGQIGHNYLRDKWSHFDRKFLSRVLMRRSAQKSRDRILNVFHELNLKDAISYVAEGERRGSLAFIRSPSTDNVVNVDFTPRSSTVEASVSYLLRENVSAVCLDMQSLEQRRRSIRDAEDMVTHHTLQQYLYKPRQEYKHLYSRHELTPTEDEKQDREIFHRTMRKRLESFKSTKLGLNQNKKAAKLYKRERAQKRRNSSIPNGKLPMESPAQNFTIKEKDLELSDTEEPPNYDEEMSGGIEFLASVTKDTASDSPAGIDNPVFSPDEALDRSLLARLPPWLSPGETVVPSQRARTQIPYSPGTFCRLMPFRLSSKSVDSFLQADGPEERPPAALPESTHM
Description: as §1

T1 sequence (P26433 29-831): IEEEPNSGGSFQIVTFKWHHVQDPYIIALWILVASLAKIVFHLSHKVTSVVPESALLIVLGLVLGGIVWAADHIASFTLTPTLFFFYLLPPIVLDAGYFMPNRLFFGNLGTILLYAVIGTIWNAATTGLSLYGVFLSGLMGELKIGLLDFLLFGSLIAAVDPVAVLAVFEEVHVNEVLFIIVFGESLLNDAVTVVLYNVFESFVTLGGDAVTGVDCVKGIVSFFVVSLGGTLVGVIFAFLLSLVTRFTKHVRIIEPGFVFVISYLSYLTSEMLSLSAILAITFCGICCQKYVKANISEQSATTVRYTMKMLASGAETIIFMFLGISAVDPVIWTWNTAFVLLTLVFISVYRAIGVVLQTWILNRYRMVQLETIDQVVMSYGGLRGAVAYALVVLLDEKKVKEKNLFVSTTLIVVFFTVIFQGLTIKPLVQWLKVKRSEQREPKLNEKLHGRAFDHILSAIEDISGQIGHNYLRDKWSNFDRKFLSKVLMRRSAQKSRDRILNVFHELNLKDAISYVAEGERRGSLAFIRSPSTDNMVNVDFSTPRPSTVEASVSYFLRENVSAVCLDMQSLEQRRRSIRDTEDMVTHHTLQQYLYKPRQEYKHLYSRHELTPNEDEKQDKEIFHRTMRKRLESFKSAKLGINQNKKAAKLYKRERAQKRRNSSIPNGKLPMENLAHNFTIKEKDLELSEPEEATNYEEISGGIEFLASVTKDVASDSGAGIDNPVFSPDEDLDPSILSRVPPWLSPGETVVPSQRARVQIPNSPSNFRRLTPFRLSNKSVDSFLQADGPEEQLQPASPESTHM

SMILES | Rat NHE3 pIC50 (persistent) (Rat NHE-3 [1]) | Rat NHE3 pIC50 (prompt) (Rat NHE-3 [2]) | Human NHE3 pIC50 (human NHE-3) | IC50 (Rat NHE-3 [1]) [nM] | IC50 (Rat NHE-3 [2]) [nM] | IC50 (human NHE-3) [nM]
CN1Cc2c(Cl)cc(Cl)cc2[C@H](c2cccc(S(=O)(=O)NCCOCCOCCOCCNC(=O)NCCCN(CCCNC(=O)NCCOCCOCCOCCNS(=O)(=O)c3cccc([C@@H]4CN(C)Cc5c(Cl)cc(Cl)cc54)c3)CCCNC(=O)NCCOCCOCCOCCNS(=O)(=O)c3cccc([C@@H]4CN(C)Cc5c(Cl)cc(Cl)cc54)c3)c2)C1 [Example 51] | C (C NHE3 pIC50 > 7) | C (C NHE3 pIC50 > 7) | C (C NHE3 pIC50 > 7) | – | – | –
CCCCCCCCCCC(=O)NC(CCC(=O)NCCOCCOCCNS(=O)(=O)c1cccc([C@@H]2CN(C)Cc3c(Cl)cc(Cl)cc32)c1)(CCC(=O)NCCOCCOCCNS(=O)(=O)c1cccc([C@@H]2CN(C)Cc3c(Cl)cc(Cl)cc32)c1)CCC(=O)NCCOCCOCCNS(=O)(=O)c1cccc([C@@H]2CN(C)Cc3c(Cl)cc(Cl)cc32)c1 [Example 22] | B (B NHE3 pIC50 5-7) | A (A NHE3 pIC50 < 5) | B (B NHE3 pIC50 5-7) | – | – | –
CN1Cc2c(Cl)cc(Cl)cc2[C@H](c2cccc(S(=O)(=O)NCCOCCOCCNC(=O)NCCN(CCNC(=O)NCCOCCOCCNS(=O)(=O)c3cccc([C@@H]4CN(C)Cc5c(Cl)cc(Cl)cc54)c3)C(=O)CCCCCCCCCCC(=O)N(CCNC(=O)NCCOCCOCCNS(=O)(=O)c3cccc([C@@H]4CN(C)Cc5c(Cl)cc(Cl)cc54)c3)CCNC(=O)NCCOCCOCCNS(=O)(=O)c3cccc([C@@H]4CN(C)Cc5c(Cl)cc(Cl)cc54)c3)c2)C1 [Example 44, N^1,N^1,N^12,N^12-tetrakis(13-(3-((S)-6,8-dichloro-2-methyl-1,2,3,4-tetrahydroisoquinolin-4-yl)phenylsulfonamido)-4-oxo-8,11-dioxa-3,5-diazatridecyl)dodecanediamide] | – | – | – | 100 to 10000 | > 10000 | > 10000
CN1Cc2c(Cl)cc(Cl)cc2[C@H](c2cccc(S(=O)(=O)NCCOCCOCCN(C)C(=O)CCC(CCC(=O)N(C)CCOCCOCCNS(=O)(=O)c3cccc([C@@H]4CN(C)Cc5c(Cl)cc(Cl)cc54)c3)(CCC(=O)N(C)CCOCCOCCNS(=O)(=O)c3cccc([C@@H]4CN(C)Cc5c(Cl)cc(Cl)cc54)c3)NC(=O)NCC(=O)O)c2)C1 [Example 69] | C (C NHE3 pIC50 > 7) | C (C NHE3 pIC50 > 7) | C (C NHE3 pIC50 > 7) | – | – | –
CN1Cc2c(Cl)cc(Cl)cc2[C@H](c2cccc(S(=O)(=O)NCCOCCOCCOCCNC(=O)CN(CCN(CC(=O)NCCOCCOCCOCCNS(=O)(=O)c3cccc([C@@H]4CN(C)Cc5c(Cl)cc(Cl)cc54)c3)CC(=O)NCCOCCOCCOCCNS(=O)(=O)c3cccc([C@@H]4CN(C)Cc5c(Cl)cc(Cl)cc54)c3)CCN(CC(=O)NCCOCCOCCOCCNS(=O)(=O)c3cccc([C@@H]4CN(C)Cc5c(Cl)cc(Cl)cc54)c3)CC(=O)NCCOCCOCCOCCNS(=O)(=O)c3cccc([C@@H]4CN(C)Cc5c(Cl)cc(Cl)cc54)c3)c2)C1 [Example 49] | B (B NHE3 pIC50 5-7) | B (B NHE3 pIC50 5-7) | B (B NHE3 pIC50 5-7) | – | – | –
CN1Cc2c(Cl)cc(Cl)cc2[C@H](c2cccc(S(=O)(=O)NCCOCCOCCOCCNC(=O)CCC(CCC(=O)NCCOCCOCCOCCNS(=O)(=O)c3cccc([C@@H]4CN(C)Cc5c(Cl)cc(Cl)cc54)c3)(CCC(=O)NCCOCCOCCOCCNS(=O)(=O)c3cccc([C@@H]4CN(C)Cc5c(Cl)cc(Cl)cc54)c3)NC(=O)Nc3ccccc3)c2)C1 [Example 13, 4-(1-(3-((S)-6,8-dichloro-2-methyl-1,2,3,4-tetrahydroisoquinolin-4-yl)phenylsulfonamido)-13-oxo-3,6,9-trioxa-12-azapentadecan-15-yl)-N^1,N^7-bis(2-(2-(2-(2-(3-((S)-6,8-dichloro-2-methyl-1,2,3,4-tetrahydroisoquinolin-4-yl)phenylsulfonamido)ethoxy)ethoxy)ethoxy)ethyl)-4-(3-phenylureido)heptanediamide] | – | – | – | < 100 | 100 to 10000 | 100 to 10000
CCCCCCCCOc1ccc(CNC(CCC(=O)NCCOCCOCCOCCNS(=O)(=O)c2cccc([C@@H]3CN(C)Cc4c(Cl)cc(Cl)cc43)c2)(CCC(=O)NCCOCCOCCOCCNS(=O)(=O)c2cccc([C@@H]3CN(C)Cc4c(Cl)cc(Cl)cc43)c2)CCC(=O)NCCOCCOCCOCCNS(=O)(=O)c2cccc([C@@H]3CN(C)Cc4c(Cl)cc(Cl)cc43)c2)cc1 [Example 20, 4-(1-(3-((S)-6,8-dichloro-2-methyl-1,2,3,4-tetrahydroisoquinolin-4-yl)phenylsulfonamido)-13-oxo-3,6,9-trioxa-12-azapentadecan-15-yl)-N^1,N^7-bis(2-(2-(2-(2-(3-((S)-6,8-dichloro-2-methyl-1,2,3,4-tetrahydroisoquinolin-4-yl)phenylsulfonamido)ethoxy)ethoxy)ethoxy)ethyl)-4-(4-(octyloxy)benzylamino)heptanediamide] | – | – | – | < 100 | 100 to 10000 | < 100
CN1Cc2c(Cl)cc(Cl)cc2[C@H](c2cccc(S(=O)(=O)NCCOCCOCCNC(=O)CCC(CCC(=O)NCCOCCOCCNS(=O)(=O)c3cccc([C@@H]4CN(C)Cc5c(Cl)cc(Cl)cc54)c3)(CCC(=O)NCCOCCOCCNS(=O)(=O)c3cccc([C@@H]4CN(C)Cc5c(Cl)cc(Cl)cc54)c3)[N+](=O)[O-])c2)C1 [Example 1, N1,N7-bis(2-(2-(2-(3-((S)-6,8-dichloro-2-methyl-1,2,3,4-tetrahydroisoquinolin-4-yl)phenylsulfonamido)ethoxy)ethoxy)ethyl)-4-(3-(2-(2-(2-(3-((S)-6,8-dichloro-2-methyl-1,2,3,4-tetrahydroisoquinolin-4-yl)phenylsulfonamido)ethoxy)ethoxy)ethylamino)-3-oxopropyl)-4-nitroheptanediamide] | – | – | – | < 100 | 100 to 10000 | 100 to 10000
CN1Cc2c(Cl)cc(Cl)cc2[C@H](c2cccc(S(=O)(=O)NCCOCCOCCOCCNC(=O)CN(CC(=O)NCCOCCOCCOCCNS(=O)(=O)c3cccc([C@@H]4CN(C)Cc5c(Cl)cc(Cl)cc54)c3)[C@@H]3CCCC[C@H]3N(CC(=O)NCCOCCOCCOCCNS(=O)(=O)c3cccc([C@@H]4CN(C)Cc5c(Cl)cc(Cl)cc54)c3)CC(=O)NCCOCCOCCOCCNS(=O)(=O)c3cccc([C@@H]4CN(C)Cc5c(Cl)cc(Cl)cc54)c3)c2)C1 [Example 48] | C (C NHE3 pIC50 > 7) | B (B NHE3 pIC50 5-7) | C (C NHE3 pIC50 > 7) | – | – | –
